Measurements published in patent US10633372B2, “Process for the preparation of amorphous (1S)-1,5-anhydro-1-[3-[[5-(4 fluorophenyl)-2-thienyl]-4-methylphenyl]-D-glucitol and its polymorphs thereof” (MSN LABORATORIES PRIVATE LIMITED, priority 2015, dated 2020).

Tests used:
[1] = cited from earlier work
[2] = as mentioned in WO2008/069327 A1; cited from earlier work
[3] = Particle size distribution; format: physicochemical

SMILES | physical change between the sorption/desorption cycle ([1]; DVS, two cycles, appearance changed as humidity increased from 70% to 90% RH) | hygroscopic nature confirmed by Dynamic vapor sorption (DVS) analysis ([1]; amorphous canagliflozin prepared per US'487 A1 (toluene solution into n-heptane)) | stability and handling of amorphous form [2] | Particle size distribution D(0.1) [3] | Particle size distribution D(0.5) [3] | Particle size distribution D(0.9) [3]
Cc1ccc([C@@H]2O[C@H](CO)[C@@H](O)[C@H](O)[C@H]2O)cc1Cc1ccc(-c2ccc(F)cc2)s1 [amorphous canagliflozin, (1S)-1,5-anhydro-1-[3-[[5-(4-fluorophenyl)-2-thienyl]methyl]-4-methylphenyl]-D-glucitol] | conversion or partial conversion from the amorphous state to a crystalline state | hygroscopic | suffers from stability and handling issues such as poor filterability | – | – | –
Cc1ccc([C@@H]2O[C@H](CO)[C@@H](O)[C@H](O)[C@H]2O)cc1Cc1ccc(-c2ccc(F)cc2)s1 [Example-2, (1S)-1,5-anhydro-1-[3-[[5-(4-fluorophenyl)-2-thienyl]methyl]-4-methylphenyl]-D-glucitol] | – | – | – | 3.29 μm | 7.69 μm | 14.5 μm
Cc1ccc([C@@H]2O[C@H](CO)[C@@H](O)[C@H](O)[C@H]2O)cc1Cc1ccc(-c2ccc(F)cc2)s1 [Example-4, (1S)-1,5-anhydro-1-[3-[[5-(4-fluorophenyl)-2-thienyl]methyl]-4-methylphenyl]-D-glucitol] | – | – | – | 28.7 μm | 61.4 μm | 116.4 μm
